Laboratory results reported in PubChem BioAssay (NCI).
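A five-concentration, 48-hour dose response in 96-well plates underlies each endpoint, interpolated linearly between surrounding concentrations. TGI: total growth inhibition.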 Where a SMILES comes first, the peptide text is derived from it. Bridges are numbered along the chain shown (N, C = ends). The star is where a group is joined. Cbz = O=C(OCc1ccccc1)*

Experiments:
Experiment in all cases: inhibition of tumour cell growth, NCI panel, 48 h
COLO 205 colon = test system: COLO 205 colon
RXF 393 renal = test system: RXF 393 renal
HOP-62 NSCLC = test system: HOP-62 NSCLC
OVCAR-3 ovarian = test system: OVCAR-3 ovarian
SN12C renal = test system: SN12C renal
HCT-116 colon = test system: HCT-116 colon
HT29 colon = test system: HT29 colon
M14 melanoma = test system: M14 melanoma
NCI-H23 lung = test system: NCI-H23 lung
SK-MEL-5 melanoma = test system: SK-MEL-5 melanoma

Structure (SMILES)	TGI (COLO 205 colon)	TGI (RXF 393 renal)	TGI (HOP-62 NSCLC)	TGI (OVCAR-3 ovarian)	TGI (SN12C renal)	TGI (HCT-116 colon)	TGI (HT29 colon)	TGI (M14 melanoma)	TGI (NCI-H23 lung)	TGI (SK-MEL-5 melanoma)
Oc1nc(N/N=C/c2ccccc2)[nH]c1/C=C1\C=Nc2ccccc21	> 100 µM	> 100 µM	> 100 µM	> 100 µM	> 100 µM	> 100 µM	> 100 µM	> 100 µM	> 100 µM	> 100 µM
COC(=O)C1CCCCNC(=O)CCC(NC(=O)OCc2ccccc2)C(=O)N1 (stereo not drawn) (Cbz-Glu-Lys-OMe; lactam 1-2; configuration not given here)	> 100 µM	> 100 µM	> 100 µM	> 100 µM	> 100 µM	> 100 µM	> 100 µM	> 100 µM	> 100 µM	> 100 µM
O/N=C1/C2CC3CC1(c1ccccc1)CC(/C3=N/O)/C2=N\O (stereo not given)	> 100 µM	> 100 µM	> 100 µM	> 100 µM	> 100 µM	> 100 µM	> 100 µM	> 100 µM	> 100 µM	> 100 µM
COc1nc(OC)nc(-c2cccc(F)c2)n1	37.8 µM	35 µM	45.7 µM	27.7 µM	31.5 µM	40.5 µM	57.9 µM	36.4 µM	29.7 µM	29.8 µM
O/N=C1\CCc2nonc2\C1=N/Nc1ccccc1	> 100 µM	> 100 µM	> 100 µM	> 100 µM	> 100 µM	> 100 µM	> 100 µM	> 100 µM	> 100 µM	> 100 µM
COc1cc2c(cc1C)NC(=O)/C2=C\c1ccncc1	> 100 µM	13.4 µM	22.8 µM	10.3 µM	20.9 µM	5.09 µM	> 100 µM	12.9 µM	9.28 µM	8.47 µM
CC1=NN(C(=O)c2ccc(Cl)cc2)C(=O)/C1=C/c1ccc(Cl)cc1	> 100 µM	> 100 µM	> 100 µM	> 100 µM	> 100 µM	> 100 µM	> 100 µM	> 100 µM	> 100 µM	> 100 µM
COP(=O)(OC)C(NC=O)P(=O)(OC)OC	> 100 µM	> 100 µM	> 100 µM	> 100 µM	> 100 µM	> 100 µM	> 100 µM	> 100 µM	> 100 µM	> 100 µM
O=C1c2ccccc2-c2nc(-c3ccccc3)cc3c2c1nc1ccccc13	65.3 µM	> 100 µM	47.2 µM	2.43 µM	32.8 µM	36.5 µM	25.9 µM	18.3 µM	16.1 µM	13.3 µM
Cc1ccc(N=C2SC(c3ccc(C)cc3)(c3ccc(C)cc3)c3ccccc32)cc1	> 100 µM	> 100 µM	> 100 µM	> 100 µM	> 100 µM	> 100 µM	> 100 µM	> 100 µM	> 100 µM	> 100 µM
CN(C)Cc1cc(C(=O)/C=C/c2cccc(Cl)c2)cc(CN(C)C)c1O	3.79 µM	23.6 µM	13.7 µM	9.21 µM	11.4 µM	13.3 µM	16.6 µM	15.5 µM	37.9 µM	6.92 µM
O=C1NC2CCCCC2N=C1/C(C(=O)c1ccccc1)=C(\O)c1ccccc1 (stereo not given)	> 100 µM	> 100 µM	> 100 µM	> 100 µM	> 100 µM	> 100 µM	> 100 µM	> 100 µM	> 100 µM	> 100 µM
CC(NNC(=O)c1ccncc1)c1ccc(Cl)c(Cl)c1 (stereo not given)	> 100 µM	> 100 µM	> 100 µM	> 100 µM	> 100 µM	> 100 µM	> 100 µM	> 100 µM	> 100 µM	> 100 µM
COc1cc(C(c2cccc3ccccc23)N2C(=O)CCC2C(=O)NCc2ccccc2)cc(OC)c1OC (stereo not given)	> 100 µM	> 100 µM	> 100 µM	> 100 µM	> 100 µM	> 100 µM	> 100 µM	> 100 µM	> 100 µM	> 100 µM
CN1Cc2c(nc(-c3ccc(Br)cc3)c[n+]2[O-])N(C)C1	> 100 µM	> 100 µM	> 100 µM	> 100 µM	> 100 µM	> 100 µM	> 100 µM	> 100 µM	> 100 µM	> 100 µM
CC(C)C(C/C=C1/CC(CO)(COC(=O)C2CCCCC2)OC1=O)C(C)C (stereo not given)	20.9 µM	40.9 µM	26.9 µM	34.5 µM	31.9 µM	33.9 µM	75.4 µM	38.8 µM	35.9 µM	> 100 µM
